The values below come from publication PMC3091868, “A Novel Structural Framework for α1A/D-Adrenoceptor Selective Antagonists Identified Using Subtype Selective Pharmacophores” (PLoS ONE, 2011).

Assay [1] addresses T1, α1A-AR (Rattus norvegicus, UniProt P43140).
T1 construct: expressed in transfected cells; host or cells: COS-1
T1 sequence (P43140 1-466): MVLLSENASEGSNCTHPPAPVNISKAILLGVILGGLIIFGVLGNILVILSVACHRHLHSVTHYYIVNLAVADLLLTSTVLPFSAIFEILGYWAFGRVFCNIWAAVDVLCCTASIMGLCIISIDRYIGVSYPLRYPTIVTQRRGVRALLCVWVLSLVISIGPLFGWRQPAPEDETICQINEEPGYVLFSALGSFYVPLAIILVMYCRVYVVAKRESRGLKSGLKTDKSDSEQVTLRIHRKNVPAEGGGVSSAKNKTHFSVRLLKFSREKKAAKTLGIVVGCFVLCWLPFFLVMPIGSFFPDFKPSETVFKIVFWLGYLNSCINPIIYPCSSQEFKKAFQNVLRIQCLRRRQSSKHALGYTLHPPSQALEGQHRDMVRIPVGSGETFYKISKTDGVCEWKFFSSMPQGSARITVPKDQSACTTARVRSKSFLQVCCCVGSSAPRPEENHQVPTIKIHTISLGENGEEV
Description: [3H]Prazosin competition/saturation binding on COS-1 membranes expressing α1A-AR. Details: species or system rodent. The note with it: for Ki: [3H]Prazosin 200 pM, COS-1 membranes. The procedure:
(§1) COS-1 cells (American Type Culture Collection, Manassas, VA) were cultured in Dulbecco's modified Eagle's medium (DMEM) supplemented with 10% (v/v) heat inactivated fetal bovine serum (FBS), 100 µg ml^−1 penicillin and 100 µg ml^−1 streptomycin. Cells were maintained and passaged upon reaching confluence by standard cell culture techniques. pMT4 plasmids containing rodent α1-AR (a kind gift from Prof R Graham, Victor Chang Cardiac Research Institute, Australia) were used to transfect cells. Transient expression in COS-1 cells was accomplished using two techniques; the diethylaminoethane-dextran (DEAE-dextran) and Lipofectamine 2000 (Invitrogen, Carlsbad, CA, USA) methods. Briefly, the DEAE-dextran method involved washing of cells with phosphate buffered saline (PBS), followed by the addition of the DNA mixture (12–25 µg/4×10^6 cells) in DEAE-dextran (10 mg ml^−1) to cells at 60–80% confluency. Following a 3 h incubation, a PBS wash with 10% DMSO was used to shock the cells. Cells were harvested 72 h post transfection. For the Lipofectamine 2000 method, cells were incubated for 12 h with Opti-MEM (GIBCO BRL, Gaithersburg, MD, USA) containing Lipofectamine 2000.
(§2) Membranes were prepared as described previously. Briefly, COS-1 cells were transiently transfected using the DEAE-dextran method. […] Protein concentration was determined using Bradford reagent (Sigma, St Louis, MO, USA).
(§3) For all binding experiments, the reaction mixture was incubated for 1 h at room temperature, stopped by the addition of 4°C PBS and filtered with a Brandel cell harvester (Gaithersburg, MD, USA) on GF/C filters. Nonspecific binding was defined as binding in the presence of 100 µM phentolamine hydrochloride.
(§4) Nonlinear regression analysis of saturation and competition binding assay data was performed using the […] curve fitting program GraphPad Prism (San Diego, CA, USA). […] The competitive binding data for each ligand was tested for both one and two -site binding.

Another assay deals with T2, α1B-AR (Mesocricetus auratus, UniProt P18841).
T2 construct: expressed in transfected cells; host or cells: COS-1
T2 sequence (P18841 1-515): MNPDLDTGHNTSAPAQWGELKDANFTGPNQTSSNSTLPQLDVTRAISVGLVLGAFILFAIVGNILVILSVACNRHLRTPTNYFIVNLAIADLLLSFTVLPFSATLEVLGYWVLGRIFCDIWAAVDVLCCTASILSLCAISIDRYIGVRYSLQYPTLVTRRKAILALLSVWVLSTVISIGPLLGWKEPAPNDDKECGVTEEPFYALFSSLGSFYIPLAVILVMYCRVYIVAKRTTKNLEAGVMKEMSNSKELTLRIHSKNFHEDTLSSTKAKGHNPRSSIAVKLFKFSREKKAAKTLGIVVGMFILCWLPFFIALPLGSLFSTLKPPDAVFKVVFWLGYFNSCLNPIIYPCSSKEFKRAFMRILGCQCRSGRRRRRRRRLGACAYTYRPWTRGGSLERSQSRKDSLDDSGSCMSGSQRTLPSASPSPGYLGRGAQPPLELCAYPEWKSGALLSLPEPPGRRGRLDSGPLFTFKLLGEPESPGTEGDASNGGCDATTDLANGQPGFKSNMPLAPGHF
Briefly: [3H]Prazosin competition/saturation binding on COS-1 membranes expressing α1B-AR. Set-up: species or system rodent. To be noted: [3H]Prazosin 200 pM, COS-1 membranes. The procedure: as §1, §2, §3, §4

The target of another assay is T3, α1D-AR (Rattus norvegicus, UniProt P23944).
T3 construct: expressed in transfected cells; host or cells: COS-1
T3 sequence (P23944 1-561): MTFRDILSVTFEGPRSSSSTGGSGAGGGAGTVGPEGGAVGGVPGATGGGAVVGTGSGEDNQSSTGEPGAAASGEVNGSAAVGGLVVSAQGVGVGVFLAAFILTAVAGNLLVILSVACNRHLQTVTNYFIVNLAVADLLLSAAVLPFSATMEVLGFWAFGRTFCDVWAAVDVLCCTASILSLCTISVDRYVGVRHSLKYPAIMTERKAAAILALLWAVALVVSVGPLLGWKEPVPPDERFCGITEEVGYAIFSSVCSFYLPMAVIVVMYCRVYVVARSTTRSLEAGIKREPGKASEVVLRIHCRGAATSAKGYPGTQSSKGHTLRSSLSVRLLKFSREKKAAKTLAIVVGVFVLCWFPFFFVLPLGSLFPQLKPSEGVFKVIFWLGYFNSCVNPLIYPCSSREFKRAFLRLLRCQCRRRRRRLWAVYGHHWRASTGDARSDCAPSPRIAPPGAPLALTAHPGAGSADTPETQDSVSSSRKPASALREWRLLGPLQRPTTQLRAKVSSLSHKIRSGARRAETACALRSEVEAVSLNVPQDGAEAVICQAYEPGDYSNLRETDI
Briefly: [3H]Prazosin competition/saturation binding on COS-1 membranes expressing α1D-AR. Set-up: species or system rodent. To be noted: [3H]Prazosin 200 pM. The procedure: as §1, §2, §3, §4

Assay [2] has as its target T1, α1A-AR. Briefly: Phosphatidylinositol hydrolysis (IP accumulation) assay in COS-1 cells expressing α1A-AR. Format: cell-based, rodent. The note with it: 20 min compound, then 10 µM (-)-norepinephrine 30 min, COS-1 cells; read-out: pIC50, inhibition of norepinephrine induced IP accumulation at α1A-AR (converted). Here is the method: as §1
Accumulation of [^3H] inositol phosphates (IPs) was determined as described previously. Briefly, COS-1 cells were transiently transfected with α1A, α1B and α1D - AR pMT4 plasmids using the Lipofectamine method. 24 h after transfection, cells were seeded into 96 well plates and labelled overnight with 20 µCi ml^−1 [^3H]myo-inositol in inositol free DMEM supplemented with 5% charcoal stripped FBS. Cells were washed twice with inositol free DMEM, and incubated in inositol free DMEM for 2 h at 37°C. Cells were treated for 20 minutes with LiCl (20 mM) and propanolol (20 µM) in the presence or absence of tested compounds. Agonists were then added for 30 min, and the reaction was terminated by addition of 0.4 M formic acid. Cells were lysed by freeze thawing twice and were applied to AG 1-X8 columns. Total IPs were eluted with 1 M ammonium formate in 0.1 M formic acid. 200 µL of eluted sample was diluted with 1 mL reverse osmosis water and 5 mL Ultimaflow scintillation fluid (Perkin Elmer), and were counted in a liquid scintillation counter.
Compounds were administered alone (100 µM) or prior to the addition of 10 µM […], to screen for agonist or antagonist activity respectively.
Figure 2 Inhibition of norepinephrine induced inositol phosphate (IP) accumulation at α1A- AR. α1A-AR transfected cells labelled overnight with [^3H]- myo-inositol were treated with indicated concentrations (300 µM – 0.1 µM) of test compounds, 1 (▪), 2 (▵), and 11 (○), for 20 min. This was followed by a 30 min. stimulation with 10 µM (-)- norepinephrine, following which total IP accumulation was determined. Data was normalized against basal COS-1 cell IP production and expressed as a percentage of the (-)-norepinephrine-stimulated maximal IP response of that receptor subtype. The data represented the mean ± SE of a single experiment (n = 4–5), performed in triplicate.
Figure 3 Inositol phosphate (IP) accumulation in the presence of norepinephrine and compound 8 at the α1A- adrenoceptor (AR). α1A-AR transfected cells were labelled with [^3H]- myo-inositol. Following a 20 min. treatment with lithium chloride (20 mM) and propanolol (20 µM) the cells were stimulated with the indicated concentrations (300 µM − 0.1 µM) of (-) norepinephrine (•) or compound 8 (▪) for 30 min. Total inositol phosphate (IP) accumulation was determined as described under “Materials and Methods”. Data was normalized against basal COS-1 cell IP production and expressed as a percentage of the (-)-norepinephrine-stimulated maximal IP response. The data represents the mean ± SE of three separate experiments (n = 3), performed in duplicate or triplicate.

The next assay has as its target all α1-AR subtypes. Set-up: method as in PMID 9249248. To be noted: cited from earlier work.
The mark [3] stands for this setting: antilog of mean pKi, Cheng-Prusoff, read-out: Ki α1A-AR.
The mark [4] stands for this setting: pKi = -Log Ki, read-out: pKi α1A-AR (converted).
Setting [5] is: antilog of mean pKi, Cheng-Prusoff, read-out: Ki α1B-AR.
The mark [6] stands for this setting: pKi = -Log Ki, read-out: pKi α1B-AR (converted).
The mark [7] stands for this setting: antilog of mean pKi, Cheng-Prusoff, read-out: Ki α1D-AR.
Setting [8] is: pKi = -Log Ki, read-out: pKi α1D-AR (converted).

SMILES strings stand for the structures. Like-named read-outs stand apart in the source and are kept apart here.

As for `Cc1cccc(CN2CCCN(C(=S)NCCN3CCOCC3)CC2)n1` [Compound 5], the Ki at α1A-AR [1] (setting [3]), on α1A-AR [1] (setting [4]), at α1B-AR (setting [5]), on α1B-AR (setting [6]), at α1D-AR (setting [7]) and at α1D-AR (setting [8]) was > 100 µM throughout.
Regarding `CCCCC(O)CN1CCC(Cc2ccccc2)CC1` (stereo not shown) [Compound 6], the Ki was 5.22 µM on α1A-AR [1] (setting [3]); 4.9 µM at α1A-AR [1] (setting [4]); 17 µM at α1B-AR (setting [5]); 13.5 µM on α1B-AR (setting [6]); 5.9 µM on α1D-AR (setting [7]); 5.5 µM on α1D-AR (setting [8]).
Regarding `CCCCN(Cc1ccc(N(CC)CC)cc1)CC(O)c1ccc(Cl)cc1` (stereo not shown) [Compound 12], the Ki on α1A-AR [1] (setting [3]) was 45.5 µM; on α1A-AR [1] (setting [4]), 30.9 µM; at α1B-AR (setting [5]) it was > 100 µM; on α1B-AR (setting [6]) it was > 100 µM; at α1D-AR (setting [7]), 62.4 µM; on α1D-AR (setting [8]), 32.4 µM.
As for `Cc1ccc(C(=O)/C(S)=C(\Nc2cccc(Cl)c2)[n+]2ccccc2)cc1` [Compound 10], the Ki on α1A-AR [1] (setting [3]), on α1A-AR [1] (setting [4]), at α1B-AR (setting [5]), on α1B-AR (setting [6]), at α1D-AR (setting [7]) and at α1D-AR (setting [8]) was > 100 µM throughout.
Take `Cc1cc(CN2CCCN(C(=S)Nc3ccccc3C(F)(F)F)CC2)no1` [Compound 4]: the Ki on α1A-AR [1] (setting [3]), on α1A-AR [1] (setting [4]), on α1B-AR (setting [5]), on α1B-AR (setting [6]), on α1D-AR (setting [7]) and at α1D-AR (setting [8]) was > 100 µM each time.
As to `COc1cccc(C=CCN2CCN(c3cccc(C(F)(F)F)c3)CC2)c1` [Compound 2], the Ki on α1A-AR [1] (setting [3]) was 0.49 µM; at α1B-AR (setting [5]), 4.59 µM; at α1D-AR (setting [7]), 18.8 µM; at α1D-AR (setting [8]), 10.5 µM. Moreover, the “selectivity for α1A-AR over α1B-AR” value at α1A-AR [1] (from binding affinities) came to 10 fold. For the same compound, at α1A-AR [1] (from binding affinities), the “selectivity for α1A-AR over α1D-AR” value stood at 38 fold. Besides, the IC50 at α1A-AR [2] is 17 µM.
For the compound `CN(C)c1ccc(CN2CCCN(Cc3ccc(N(C)C)cc3)C2c2cc(Cl)ccc2O)cc1` [Compound 9], the Ki at α1A-AR [1] (setting [3]) was 24.5 µM; at α1A-AR [1] (setting [4]), 23.4 µM; at α1B-AR (setting [5]) it was > 100 µM; at α1B-AR (setting [6]) it was > 100 µM; on α1D-AR (setting [7]), 36.1 µM; on α1D-AR (setting [8]), 24.5 µM.
Regarding `CCN(Cc1ccccc1)CC(O)c1cccc(Cl)c1` (stereo not shown) [Compound 3], the Ki on α1A-AR [1] (setting [3]) is 15.1 µM; on α1A-AR [1] (setting [4]), 12.6 µM; at α1B-AR (setting [5]), 24.4 µM; on α1B-AR (setting [6]), 9.55 µM; on α1D-AR (setting [7]) it was 8.35 µM; at α1D-AR (setting [8]), 7.76 µM.
Turning to `COc1cc2nc(N3CCN(C(=O)c4ccco4)CC3)nc(N)c2cc1OC` [prazosin], the Ki on all α1-AR subtypes was ~0.1 nM.
As to `CN(C)CC(C(=O)c1ccc(Br)cc1)C(Br)c1ccccc1` (stereo not shown) [Compound 7], the Ki is 20.3 µM on α1A-AR [1] (setting [3]); 14.8 µM at α1A-AR [1] (setting [4]); 38.5 µM at α1B-AR (setting [5]); 17 µM at α1B-AR (setting [6]); 9.77 µM at α1D-AR (setting [8]).
